Measurements as given in patent US8642640B2, “1-phenylpyrrole derivatives” (Exelixis, Inc., priority 2008, dated 2014).

Target: T1, human mineralocorticoid receptor (hMR) (Homo sapiens, UniProt P08235)
T1 construct: expressed in transfected cells; host or cells: HEK293
T1 sequence (P08235 726-964 limits assumed): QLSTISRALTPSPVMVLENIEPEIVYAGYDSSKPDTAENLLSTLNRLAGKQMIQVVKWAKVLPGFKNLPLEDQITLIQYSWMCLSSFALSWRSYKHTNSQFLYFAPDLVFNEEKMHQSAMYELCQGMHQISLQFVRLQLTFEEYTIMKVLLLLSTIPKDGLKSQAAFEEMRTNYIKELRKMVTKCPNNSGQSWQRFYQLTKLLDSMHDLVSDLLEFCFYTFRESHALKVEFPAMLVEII
Experiment: GAL4-hMR-LBD luciferase reporter assay in HEK293 cells with 1 nM aldosterone (Test Example 1);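 for Imax: 0% is DMSO-only control and 100% is 1 nM aldosterone alone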
Format: cell-based
Conditions: for IC50: concentration showing Imax/2, HEK293, GAL4-hMR-LBD, 1 nM aldosterone, overnight, read-out: ICmax50; for Emax: HEK293, read-out: Imax
Procedure: A plasmid pM-hMR-LBD expressing GAL4-hMR receptor, which has a ligand binding domain (LBD, corresponding to approximately 308 amino acids at the carboxy terminus) of human mineralocorticoid receptor (hMR, NM_000901) bonded to a DNA binding domain of yeast transcription factor GAL4 (corresponding to 147 amino acids at the amino terminus), was prepared. Reporter assay was conducted by using a reporter plasmid (such as plasmid pFR-Luc of […] CLONING SYSTEMS) including a luciferase gene, having a sequence (UAS sequence) which binds to the DNA binding domain of GAL4.
The plasmid pM-hMR-LBD and the reporter plasmid as obtained above were gene transferred into renal cell line HEK293 of human fetus by lipofection. On the next day, cells were collected by trypsin treatment, and dispensed with DMEM culture medium containing 5% of FBS treated by activated charcoal, to a white 96-well plate (Costar) with the amount of 95 microliter per well.
The test compounds were used as dissolved in dimethyl sulfoxide at a predetermined concentration, and the test compounds suitably diluted with culture media were added to the cells on the white 96-well plate so that the final concentration becomes 0.1%. […] After the addition, cultivation was carried out overnight.
On the next day, the culture media was removed, and then luciferase substrate (Wako Pure Chemical Industries, Ltd.) was prepared in accordance with the attached document and were added to each well by 50 microliters. Stirring was conducted for approximately 30 minutes, and the amount of luminescence was measured for each well by using Analyst (Molecular Devices), to obtain luciferase activity. A graph which plots relative luciferase activity values, when the luciferase activity value of Control group 1 was taken as 0% and the luciferase activity value of Control group 2 was taken as 100%, for each of the amount of the test compound addition group was made.

| Compound | IC50 | Emax |
| --- | --- | --- |
| Cc1c(C(=O)Nc2ccc(S(C)(=O)=O)cc2)cc(C[C@H](C)O)n1-c1ccc(Cl)cc1Cl (single isomer, unassigned) [Example 43 - isomer B] | > 1000 nM |  |
| Cc1c(C(=O)Nc2ccc(S(C)(=O)=O)cc2)cc(C[C@H](C)O)n1-c1ccc(Cl)cc1Oc1ccc(F)cc1 (single isomer, unassigned) [Example 45 - isomer B] | > 1000 nM |  |
| Cc1c(C(=O)Nc2ccc(S(C)(=O)=O)cc2)cc(CCO)n1-c1ccc(Cl)cc1C(F)(F)F (single isomer, unassigned) [Example 1 - isomer B, 1-[4-Chloro-2-(trifluoromethyl)phenyl]-5-(2-hydroxyethyl)-2-methyl-N-[4-(methylsulfonyl)phenyl]-1H-pyrrole-3-carboxamide] | > 1000 nM |  |
| Cc1c(C(=O)Nc2ccc(S(C)(=O)=O)cc2)cc(C[C@H](C)O)n1-c1ccc(Cl)cc1Oc1ccc(F)cc1 [Example 45, 1-[4-Chloro-2-(4-fluorophenoxy)phenyl]-5-[(2S)-2-hydroxypropyl]-2-methyl-N-[4-(methylsulfonyl)phenyl]-1H-pyrrole-3-carboxamide] | 7.1 nM | 85% |
| Cc1c(C(=O)Nc2ccc(S(C)(=O)=O)cc2)cc(C[C@H](C)O)n1-c1ccc(Cl)cc1-c1ccc(F)cc1 (single isomer, unassigned) [Example 50 - isomer B] | 1.2 nM | 104% |
| Cc1c(C(=O)Nc2ccc(S(C)(=O)=O)cc2)cc(C[C@H](C)O)n1-c1ccc(Cl)cc1C(F)(F)F [Example 6, 1-[4-Chloro-2-(trifluoromethyl)phenyl]-5-[(2S)-2-hydroxypropyl]-2-methyl-N-[4-(methylsulfonyl)phenyl]-1H-pyrrole-3-carboxamide] | 6.2 nM | 92% |
| Cc1c(C(=O)Nc2ccc(S(C)(=O)=O)cc2)cc(C[C@H](C)O)n1-c1ccc(F)cc1OC(F)F [Example 9, 1-[2-(Difluoromethoxy)-4-fluorophenyl]-5-[(2S)-2-hydroxypropyl]-2-methyl-N-[4-(methylsulfonyl)phenyl]-1H-pyrrole-3-carboxamide] | 41 nM | 114% |
| Cc1c(C(=O)Nc2ccc(S(C)(=O)=O)cc2)cc(CCO)n1-c1ccc(Cl)cc1C(F)(F)F [Example 1, 1-[4-Chloro-2-(trifluoromethyl)phenyl]-5-(2-hydroxyethyl)-2-methyl-N-[4-(methylsulfonyl)phenyl]-1H-pyrrole-3-carboxamide] | 11 nM | 110% |
| Cc1c(C(=O)Nc2ccc(S(C)(=O)=O)cc2)cc(C[C@H](C)O)n1-c1ccc(Cl)cc1-c1ccc(F)cc1 (single isomer, unassigned) [Example 50 - isomer A] | > 1000 nM |  |
| Cc1c(C(=O)Nc2ccc(S(C)(=O)=O)cc2)cc(CCF)n1-c1ccc(F)cc1OC(F)F [Example 54, 1-[2-(Difluoromethoxy)-4-fluorophenyl]-5-(2-fluoroethyl)-2-methyl-N-[4-(methylsulfonyl)phenyl]-1H-pyrrole-3-carboxamide] | 14 nM | 75% |
| Cc1c(C(=O)Nc2ccc(S(N)(=O)=O)c(Cl)c2)cc(C[C@H](C)O)n1-c1ccc(F)cc1C(F)(F)F (single isomer, unassigned) [Example 12 - isomer A] | 3.1 nM | 113% |
| Cc1c(C(=O)Nc2ccc(S(C)(=O)=O)cc2)cc(CCF)n1-c1ccc(F)cc1OC(F)F (single isomer, unassigned) [Example 54 - isomer B, 1-[2-(Difluoromethoxy)-4-fluorophenyl]-5-(2-fluoroethyl)-2-methyl-N-[4-(methylsulfonyl)phenyl]-1H-pyrrole-3-carboxamide] | > 1000 nM |  |
| Cc1c(C(=O)Nc2ccc(S(C)(=O)=O)cc2)cc(C[C@H](C)O)n1-c1ccc(Cl)cc1OC(F)(F)F [Example 42, 1-[4-Chloro-2-(trifluoromethoxy)phenyl]-5-[(2S)-2-hydroxypropyl]-2-methyl-N-[4-(methylsulfonyl)phenyl]-1H-pyrrole-3-carboxamide] | 4.8 nM | 110% |
| Cc1c(C(=O)Nc2ccc(S(N)(=O)=O)c(Cl)c2)cc(C[C@H](C)O)n1-c1ccc(F)cc1Cl (single isomer, unassigned) [Example 49 - isomer A] | > 1000 nM |  |
| Cc1c(C(=O)Nc2ccc(S(C)(=O)=O)cc2)cc(C[C@H](C)O)n1-c1ccc(Cl)cc1C(F)(F)F (single isomer, unassigned) [Example 6 - isomer B] | > 1000 nM |  |
| Cc1c(C(=O)Nc2ccc(S(C)(=O)=O)cc2)cc(CC(=O)N(C)C)n1-c1ccc(Cl)cc1C(F)(F)F [Example 61, 1-[4-Chloro-2-(trifluoromethyl)phenyl]-5-[2-(dimethylamino)-2-oxoethyl]-2-methyl-N-[4-(methylsulfonyl)phenyl]-1H-pyrrole-3-carboxamide] | 5.5 nM | 115% |
| Cc1cc(NC(=O)c2cc(C[C@H](C)O)n(-c3ccc(F)cc3OC(F)F)c2C)ccc1S(C)(=O)=O [Example 22, 1-[2-(Difluoromethoxy)-4-fluorophenyl]-5-[(2S)-2-hydroxypropyl]-2-methyl-N-[3-methyl-4-(methylsulfonyl)phenyl]-1H-pyrrole-3-carboxamide] | 9.1 nM | 111% |
| Cc1cc(Cl)ccc1-n1c(CCF)cc(C(=O)Nc2ccc(S(C)(=O)=O)cc2)c1C (single isomer, unassigned) [Example 51 - isomer B, 1-(4-Chloro-2-methylphenyl)-5-(2-fluoroethyl)-2-methyl-N-[4-(methylsulfonyl)phenyl]-1H-pyrrole-3-carboxamide] | > 1000 nM |  |
| Cc1c(C(=O)Nc2ccc(S(C)(=O)=O)cc2)cc(CCO)n1-c1ccc(F)cc1Cl (single isomer, unassigned) [Example 3 - isomer B, 1-(2-Chloro-4-fluorophenyl)-5-(2-hydroxyethyl)-2-methyl-N-[4-(methylsulfonyl)phenyl]-1H-pyrrole-3-carboxamide] | > 1000 nM |  |
| Cc1c(C(=O)Nc2ccc(S(C)(=O)=O)cc2)cc(C[C@H](C)O)n1-c1ccc(F)cc1C(F)(F)F (single isomer, unassigned) [Example 5 - isomer B] | > 1000 nM |  |
| CCc1c(C(=O)Nc2ccc(S(C)(=O)=O)cc2)cc(C[C@H](C)O)n1-c1ccc(F)cc1Cl [Example 44, 1-(2-Chloro-4-fluorophenyl)-2-ethyl-5-[(2S)-2-hydroxypropyl]-N-[4-(methylsulfonyl)phenyl]-1H-pyrrole-3-carboxamide] | 24 nM | 111% |
| Cc1cc(NC(=O)c2cc(C[C@H](C)O)n(-c3ccc(F)cc3OC(F)F)c2C)ccc1S(C)(=O)=O (single isomer, unassigned) [Example 22 - isomer B] | > 1000 nM |  |
| Cc1c(C(=O)Nc2ccc(S(C)(=O)=O)cc2)cc(C[C@H](C)O)n1-c1ccc(F)cc1OC(F)(F)F [Example 16, 1-[4-Fluoro-2-(trifluoromethoxy)phenyl]-5-[(2S)-2-hydroxypropyl]-2-methyl-N-[4-(methylsulfonyl)phenyl]-1H-pyrrole-3-carboxamide] | 7.8 nM | 94% |
| Cc1c(C(=O)Nc2ccc(S(C)(=O)=O)cc2)cc(C[C@H](C)O)n1-c1ccc(Cl)cc1OC(F)F (single isomer, unassigned) [Example 11 - isomer B] | > 1000 nM |  |
| Cc1c(C(=O)Nc2ccc(S(C)(=O)=O)cc2)cc(CCO)n1-c1ccc(F)cc1Cl [Example 3, 1-(2-Chloro-4-fluorophenyl)-5-(2-hydroxyethyl)-2-methyl-N-[4-(methylsulfonyl)phenyl]-1H-pyrrole-3-carboxamide] | 30 nM | 109% |
| Cc1cc(NC(=O)c2cc(C[C@H](C)O)n(-c3ccc(F)cc3OC(F)F)c2C)ccc1S(C)(=O)=O (single isomer, unassigned) [Example 22 - isomer A] | 6.1 nM | 99% |
| Cc1c(C(=O)Nc2ccc(S(N)(=O)=O)c(Cl)c2)cc(C[C@H](C)O)n1-c1ccc(F)cc1Cl [Example 49, N-[4-(Aminosulfonyl)-3-chlorophenyl]-1-(2-chloro-4-fluorophenyl)-5-[(2S)-2-hydroxypropyl]-2-methyl-1H-pyrrole-3-carboxamide] | 8.3 nM | 96% |
| Cc1c(C(=O)Nc2ccc(S(C)(=O)=O)cc2)cc(C[C@H](C)O)n1-c1ccc(Cl)cc1-c1ccc(F)cc1 [Example 50, 1-(5-Chloro-4′-fluorobiphenyl-2-yl)-5-[(2S)-2-hydroxypropyl]-2-methyl-N-[4-(methylsulfonyl)phenyl]-1H-pyrrole-3-carboxamide] | 2.7 nM | 114% |
| Cc1c(C(=O)Nc2ccc(S(C)(=O)=O)cc2)cc(C[C@H](C)O)n1-c1ccc(F)cc1Cl (single isomer, unassigned) [Example 40 - isomer B] | > 1000 nM |  |
